Values quoted from earlier work, collected in article PMC8197769 (Progress in retinal and eye research, 2020).
Read-outs that look alike come from different tables or passages of the source. Values belong to the molecule of their own block, whether it stands above or below them.

Assays:
[1] = test system: patients with geographic atrophy; settings: ref Holz et al., 2018
[2] = test system: patients with geographic atrophy; settings: intravitreal; ref Gensler et al., 2018
drusen = settings: intravitreal injection, preliminary studies; ref Chi et al., 2010
[3] = test system: patients with paroxysmal nocturnal hemoglobinuria
[4] = test system: patients with geographic atrophy; settings: ref Liao et al., 2020
[5] = test system: patients with geographic atrophy; settings: ref Jaffe et al., 2020
[6] = intravitreal injection, phase I; ref NCT01255462
[7] = test system: patients with geographic atrophy; settings: 5 mg monthly vs. sham, 150 patients; ref NCT01527500

Molecule: lampalizumab: fragment of humanized monoclonal antibody, inhibits Factor D
phase III outcome for GA [1]: negative results

Molecule: CO[C@H]1C[C@@H]2CC[C@@H](C)[C@@](O)(O2)C(=O)C(=O)N2CCCC[C@H]2C(=O)O[C@H]([C@H](C)C[C@@H]2CC[C@@H](O)[C@H](OC)C2)CC(=O)[C@H](C)/C=C(\C)[C@@H](O)[C@@H](OC)C(=O)[C@H](C)C[C@H](C)/C=C/C=C/C=C/1C [sirolimus]
efficacy for GA [2]: did not suggest efficacy for GA

Molecule: compstatin
effect on drusen (drusen): may cause drusen regression

Molecule: pegcetacoplan
safety during prolonged and systemic clinical intervention ([3]; human, in vivo): acceptable safety profiles
efficacy in paroxysmal nocturnal hemoglobinuria ([3]; phase III, ref Apellis Pharmaceuticals, 2020, Castro et al.): showed efficacy
investigator-determined conversion to exudative AMD ([4]; every other month group (sham 1.2%)): 8.9%
investigator-determined conversion to exudative AMD ([4]; monthly group (sham 1.2%)): 20.9%

endophthalmitis [5]: no cases of endophthalmitis
Molecule: avacincaptad pegol

B1: tesidolumab: IgG1 antibody that prevents C5 cleavage (antibody, chains of the INN, looked up, V domains shown)
VH: EVQLVQSGAEVKKPGSSVKVSCKASGGTFSSYAISWVRQAPGQGLEWMGGIGPFFGTANYAQKFQGRVTITADESTSTAYMELSSLRSEDTAVYYCARDTPYFDYWGQGTLVTVSS
VL: SYELTQPLSVSVALGQTARITCSGDSIPNYYVYWYQQKPGQAPVLVIYDDSNRPSGIPERFSGSNSGNTATLTISRAQAGDEADYYCQSFDSSLNAEVFGGGTKLTVL
safety [6]: No significant safety events were seen
benefit for GA or vision [7]: No benefit
